Earlier results, collected in patent publication US20050042271A1, “Transdermal delivery system for alkaloids of aconitum species” (priority 1999, published 2005).

How the values were obtained:
[1] = all layers of epidermis and dermis; irreversible damage, scarring

Row | Compound | affinity for opioid receptors (opioid receptors) | skin irritation [1]
1 | CCN1C[C@@]2(COC)[C@H]3[C@@H](OC)[C@H]4[C@@H]1[C@]3([C@@H](OC)C[C@H]2OC(C)=O)[C@@H]1C[C@@]2(O)[C@H](OC(=O)c3ccccc3)[C@@H]1[C@]4(OC(C)=O)[C@@H](O)[C@@H]2OC [3-acetylaconitine] | without affinity for opioid receptors | –
2 | CCCCCCCCCCCCN1CCCCCC1=O [Azone, laurocapram] | – | severe skin irritation
3 | CCN1C[C@]2(OC(=O)c3ccccc3NC(C)=O)CC[C@H](OC)[C@@]34[C@@H]2C[C@@H]([C@@H]13)[C@@]1(O)C[C@H](OC)[C@H]2C[C@@H]4[C@]1(O)[C@H]2OC [lappaconitine] | without affinity for opioid receptors | –
4 | bulleyaconitine A | without affinity for opioid receptors | –
